Assay results published in US20020049173A1, “Alteration of cellular behavior by antisense modulation of mRNA processing” (priority 1999, published 2002).
In the oligonucleotide strings, read from the 5' end, every base follows the letter of its sugar. An asterisk marks phosphorothioate; unmarked linkages are phosphodiester. Other units and linkages are bracketed, terminal groups are in braces. A string of capitals states the bases alone. e = 2'-O-(2-methoxyethyl) (MOE); [5mC] = 5-methylcytosine; d = 2'-deoxy (DNA)

How the values were obtained:
Human IL-5 receptorα = Human IL-5 receptorα protein expression on the cell surface (36 hr), TF-1 cells; format: cell-based; set-up: % INHIB, human IL-5 receptorα protein on the cell surface / % of CONTROL, human IL-5 receptorα protein on the cell surface: concentration or dose not given beside the values; details: for % INHIB, human IL-5 receptorα protein on the cell surface / % of CONTROL, human IL-5 receptorα protein on the cell surface: 36 hr
From the text: (§1) A series of oligonucleotides were designed to target various splice sites or (intron-exon boundaries) in the IL-5 receptor mRNA.
ISIS 16746, 16748, 16755 and 16758 inhibited human IL-5 receptorα protein by over 50% in this assay and are therefore preferred. ISIS 16758 and 16755 were chosen for further study.

[1] = system: Human IL-5 receptorα membrane form mRNA; experiment: Human IL-5 receptorα membrane form mRNA expression (18 hr); format: cell-based; set-up: % INHIB'N, human IL-5 receptorα membrane form mRNA / % of CONTROL, human IL-5 receptorα membrane form mRNA: concentration or dose not given beside the values; details: 18 hr
From the text: mRNA transcripts encoding the membrane form of the human IL-5 receptorα contain exons 1-10 and 12-14. Exon 11 is spliced out. It is, therefore, possible to target sequences in exons 1-10 which are common to both soluble and membrane forms of the receptor, or to selectively target sequences only present in the membrane form (exons 12-14). Oligonucleotides were also designed to target various intron/exon boundaries downstream of exon 11, with the intention of preventing successful splicing out of exon 11 and thus redirecting splice products away from the membrane form and in favor of the soluble form of IL-5 receptorα.
as §1

[2] = system: murine IL-5 receptor α mRNA, soluble form; experiment: Soluble IL-5 receptor α mRNA by Northern blot in BCL1 cells; format: cell-based, mouse; details: BCL1 cells, 10 μM, Northern blot, compared to untreated control; 2′-MOE gapmers
From the text: (§2) Murine BCL1 cells were chosen for screening antisense oligonucleotides targeted to murine IL-5 receptor α. These are B-cell leukemia cells derived from a spontaneously arising tumor of BALB/c origin, and proliferate in response to murine or human IL-5. This is a CD5+line which resembles a subset of human chronic lymphocytic leukemia tumors and secretes IgM upon lipopolysaccharide stimulation. Cells were obtained from the American Type Culture Collection and cultured in RPMI 1640 medium supplemented with 10% heat-inactivated fetal bovine serum (Sigma Chemical Co., St. Louis, Mo.), 10 mM Hepes, pH 7.2, 50 μM 2-ME, 2 mM L-glutamine, 100 U/ml penicillin and 100 μg/ml streptomycin (Gibco, Grand Island, N.Y.).
(§3) The effect of these compounds on both membrane and soluble forms of murine IL-5 receptor α were measured and are shown in Table 1B. Oligonucleotides were screened in BCL1 cells at a dose of 10 μM and IL-5 receptor α mRNA was measured by Northern blot. Percent inhibition is compared to untreated (no oligo) control.
(§4) Total BCL1 cellular RNA was isolated using the RNeasy™ kit (Qiagen, Santa Clara Calif.) . Northern blotting was performed using standard methods. The cDNA probes were generated from oligonucleotides matching the exon sequences of either exons 2, 8, 9 or 10. Signals were quantitated using a Molecular Dynamics PhosphorImager.

[3] = system: murine IL-5 receptor α mRNA, membrane form; experiment: Membrane IL-5 receptor α mRNA by Northern blot in BCL1 cells; format: cell-based, mouse; details: BCL1 cells, 10 μM, Northern blot, compared to untreated control; 2′-MOE gapmers
From the text: as §2, §3, §4

16746 (antisense eA*e[5mC]*e[5mC]*e[5mC]*eA*eG*e[5mC]*eT*eT*eT*e[5mC]*eT*eG*e[5mC]*eA*eA*eA*eA*e[5mC]*eA) [compound 16746]
% INHIB, human IL-5 receptorα protein on the cell surface (Human IL-5 receptorα): 65%
% of CONTROL, human IL-5 receptorα protein on the cell surface (Human IL-5 receptorα): 35%
% INHIB'N, human IL-5 receptorα membrane form mRNA [1]: 64%
% of CONTROL, human IL-5 receptorα membrane form mRNA [1]: 36%

16747 (antisense ACCCAGCTTTCTGCAAAACA; listed as DNA, chemistry not fully specified) [compound 16747]
% INHIB, human IL-5 receptorα protein on the cell surface (Human IL-5 receptorα): 19.5%
% of CONTROL, human IL-5 receptorα protein on the cell surface (Human IL-5 receptorα): 80.5%
% INHIB'N, human IL-5 receptorα membrane form mRNA [1]: 34%
% of CONTROL, human IL-5 receptorα membrane form mRNA [1]: 66%

16748 (antisense ACCCAGCTTTCTGCAAAACA; listed as DNA, chemistry not fully specified) [compound 16748]
% INHIB, human IL-5 receptorα protein on the cell surface (Human IL-5 receptorα): 59.5%
% of CONTROL, human IL-5 receptorα protein on the cell surface (Human IL-5 receptorα): 40.5%
% INHIB'N, human IL-5 receptorα membrane form mRNA [1]: 75%
% of CONTROL, human IL-5 receptorα membrane form mRNA [1]: 25%

16749 (antisense eT*e[5mC]*eA*eA*e[5mC]*eA*eT*eT*eA*e[5mC]*e[5mC]*eT*e[5mC]*eA*eT*eA*eG*eT*eT*eA) [compound 16749]
% INHIB, human IL-5 receptorα protein on the cell surface (Human IL-5 receptorα): 25%
% of CONTROL, human IL-5 receptorα protein on the cell surface (Human IL-5 receptorα): 75%
% of CONTROL, human IL-5 receptorα membrane form mRNA [1]: 101%

16750 (antisense dT*dC*dA*dA*dC*dA*dT*dT*dA*dC*e[5mC]*eT*e[5mC]*eA*eT*eA*eG*eT*eT*eA) [compound 16750]
% INHIB, human IL-5 receptorα protein on the cell surface (Human IL-5 receptorα): 9%
% of CONTROL, human IL-5 receptorα protein on the cell surface (Human IL-5 receptorα): 91%
% INHIB'N, human IL-5 receptorα membrane form mRNA [1]: 4%
% of CONTROL, human IL-5 receptorα membrane form mRNA [1]: 96%

16751 (antisense eT*e[5mC]*eA*eA*e[5mC]*dA*dT*dT*dA*dC*dC*dT*dC*dA*dT*eA*eG*eT*eT*eA) [compound 16751]
% of CONTROL, human IL-5 receptorα protein on the cell surface (Human IL-5 receptorα): 101%
% INHIB'N, human IL-5 receptorα membrane form mRNA [1]: 4%
% of CONTROL, human IL-5 receptorα membrane form mRNA [1]: 96%

16752 (antisense eT*eA*eA*eA*eT*eG*eA*e[5mC]*eA*eT*e[5mC]*eT*eG*eA*eA*eA*eA*e[5mC]*eA*eG) [compound 16752]
% of CONTROL, human IL-5 receptorα protein on the cell surface (Human IL-5 receptorα): 100.5%
% of CONTROL, human IL-5 receptorα membrane form mRNA [1]: 101%

16753 (antisense dT*dA*dA*dA*dT*dG*dA*dC*dA*dT*e[5mC]*eT*eG*eA*eA*eA*eA*e[5mC]*eA*eG) [compound 16753]
% INHIB, human IL-5 receptorα protein on the cell surface (Human IL-5 receptorα): 4%
% of CONTROL, human IL-5 receptorα protein on the cell surface (Human IL-5 receptorα): 96%
% INHIB'N, human IL-5 receptorα membrane form mRNA [1]: 2%
% of CONTROL, human IL-5 receptorα membrane form mRNA [1]: 98%

16754 (antisense eT*eA*eA*eA*eT*dG*dA*dC*dA*dT*dC*dT*dG*dA*dA*eA*eA*e[5mC]*eA*eG) [compound 16754]
% of CONTROL, human IL-5 receptorα protein on the cell surface (Human IL-5 receptorα): 100.5%
% of CONTROL, human IL-5 receptorα membrane form mRNA [1]: 101%

16755 (antisense eG*eA*eA*e[5mC]*eA*e[5mC]*eT*eT*eA*e[5mC]*eA*eT*eT*eT*eT*eA*e[5mC]*eA*eG*eA) [compound 16755]
% INHIB, human IL-5 receptorα protein on the cell surface (Human IL-5 receptorα): 89.5%
% of CONTROL, human IL-5 receptorα protein on the cell surface (Human IL-5 receptorα): 10.5%
% INHIB'N, human IL-5 receptorα membrane form mRNA [1]: 84%
% of CONTROL, human IL-5 receptorα membrane form mRNA [1]: 15.5%

16756 (antisense dG*dA*dA*dC*dA*dC*dT*dT*dA*dC*eA*eT*eT*eT*eT*eA*e[5mC]*eA*eG*eA) [compound 16756]
% of CONTROL, human IL-5 receptorα protein on the cell surface (Human IL-5 receptorα): 101%
% INHIB'N, human IL-5 receptorα membrane form mRNA [1]: 4%
% of CONTROL, human IL-5 receptorα membrane form mRNA [1]: 96%

16757 (antisense eG*eA*eA*e[5mC]*eA*dC*dT*dT*dA*dC*dA*dT*dT*dT*dT*eA*e[5mC]*eA*eG*eA) [compound 16757]
% INHIB, human IL-5 receptorα protein on the cell surface (Human IL-5 receptorα): 19%
% of CONTROL, human IL-5 receptorα protein on the cell surface (Human IL-5 receptorα): 81%
% INHIB'N, human IL-5 receptorα membrane form mRNA [1]: 9%
% of CONTROL, human IL-5 receptorα membrane form mRNA [1]: 91%

16759 (antisense dT*dC*dA*dT*dC*dA*dT*dT*dT*dC*e[5mC]*eT*eG*eG*eT*eG*eG*eA*eA*eA) [compound 16759]
% INHIB, human IL-5 receptorα protein on the cell surface (Human IL-5 receptorα): 24.5%
% of CONTROL, human IL-5 receptorα protein on the cell surface (Human IL-5 receptorα): 75.5%
% INHIB'N, human IL-5 receptorα membrane form mRNA [1]: 19%
% of CONTROL, human IL-5 receptorα membrane form mRNA [1]: 81%

16760 (antisense eT*e[5mC]*eA*eT*e[5mC]*dA*dT*dT*dT*dC*dC*dT*dG*dG*dT*eG*eG*eA*eA*eA) [compound 16760]
% INHIB, human IL-5 receptorα protein on the cell surface (Human IL-5 receptorα): 29%
% of CONTROL, human IL-5 receptorα protein on the cell surface (Human IL-5 receptorα): 71%
% INHIB'N, human IL-5 receptorα membrane form mRNA [1]: 24%
% of CONTROL, human IL-5 receptorα membrane form mRNA [1]: 76%

18001 (CAAGGACTTCCTTTCCTTTC; antisense; listed as DNA, chemistry not fully specified) [compound 18001]
% inhibition of soluble IL-5 Rα [2]: 39%
% inhibition of membrane IL-5 Rα [3]: 35%

18002 (GCCATTCTACCAAGGACTTC; listed as DNA, chemistry not fully specified) [compound 18002]
% inhibition of soluble IL-5 Rα [2]: 8%
% inhibition of membrane IL-5 Rα [3]: 5%

18003 (ACAATGAGATGCCATTCTAC; antisense; listed as DNA, chemistry not fully specified) [compound 18003]
% inhibition of soluble IL-5 Rα [2]: 20%
% inhibition of membrane IL-5 Rα [3]: 15%

18004 (TGTTGGGAGCACAATGAGAT; antisense; listed as DNA, chemistry not fully specified) [compound 18004]
% inhibition of soluble IL-5 Rα [2]: 20%
% inhibition of membrane IL-5 Rα [3]: 10%

18005 (AGCAGGCAGCTGTTGGGAGC; antisense; listed as DNA, chemistry not fully specified) [compound 18005]
% inhibition of soluble IL-5 Rα [2]: 59%
% inhibition of membrane IL-5 Rα [3]: 55%

18006 (TGAGAAGATTAACAAGACGA; antisense; listed as DNA, chemistry not fully specified) [compound 18006]
% inhibition of soluble IL-5 Rα [2]: 65%
% inhibition of membrane IL-5 Rα [3]: 59%

18007 (eT*eG*e[5mC]*eA*eG*dA*dT*dG*dA*dG*dT*dG*dA*dG*dA*eA*eG*eA*eT*eT; antisense) [compound 18007]
% inhibition of soluble IL-5 Rα [2]: 65%
% inhibition of membrane IL-5 Rα [3]: 65%

ISIS 16746: ACCCAGCTTTCTGCAAAACA, SEQ ID 31; human IL-5R I13/E14; 2′-MOE pattern (bold) not visible (antisense eA*e[5mC]*e[5mC]*e[5mC]*eA*eG*e[5mC]*eT*eT*eT*e[5mC]*eT*eG*e[5mC]*eA*eA*eA*eA*e[5mC]*eA)
% INHIB, human IL-5 receptorα protein on the cell surface (Human IL-5 receptorα): over 50%
% INHIB'N, human IL-5 receptorα membrane form mRNA [1]: over 50%

ISIS 16748: ACCCAGCTTTCTGCAAAACA, SEQ ID 31; human IL-5R I13/E14; 2′-MOE pattern not visible (antisense eA*e[5mC]*e[5mC]*e[5mC]*eA*dG*dC*dT*dT*dT*dC*dT*dG*dC*dA*eA*eA*eA*e[5mC]*eA)
% INHIB, human IL-5 receptorα protein on the cell surface (Human IL-5 receptorα): over 50%
% INHIB'N, human IL-5 receptorα membrane form mRNA [1]: over 50%

ISIS 18002: GCCATTCTACCAAGGACTTC, SEQ ID 2; 2′-MOE gapmer, mouse IL-5R exon 9 (listed as DNA, chemistry not fully specified)
% inhibition of membrane IL-5 Rα [3]: inhibitor of both forms of IL-5 receptorα

ISIS 18009: TCATCATTTACTGGTGGAAA, SEQ ID 36; mismatch of 16758 (antisense eT*e[5mC]*eA*eT*e[5mC]*eA*eT*eT*eT*eA*e[5mC]*eT*eG*eG*eT*eG*eG*eA*eA*eA) [reference compound]
IC50 (Human IL-5 receptorα; TF-1 cells, read-out: IC50 for reduction of IL-5 receptorα cell surface protein): 10 µM

ISIS 18010: TCAGCATTTACTGGTGTAAA, SEQ ID 37; mismatch of 16758 (antisense eT*e[5mC]*eA*eG*e[5mC]*eA*eT*eT*eT*eA*e[5mC]*eT*eG*eG*eT*eG*eT*eA*eA*eA) [reference compound]
inhibition of IL-5 receptorα expression (mismatch controls) (Human IL-5 receptorα; TF-1 cells): did not inhibit

ISIS 18011: TCAGCAGTTACTTGTGTAAA, SEQ ID 38; 5-mismatch for 16758 (antisense eT*e[5mC]*eA*eG*e[5mC]*eA*eG*eT*eT*eA*e[5mC]*eT*eT*eG*eT*eG*eT*eA*eA*eA) [reference compound]
inhibition of IL-5 receptorα expression (mismatch controls) (Human IL-5 receptorα; TF-1 cells): did not inhibit
